Molecules are shown by their SMILES.

Data set [1] has as its system A375 cells. The experiment in a line: Cellular uptake and subcellular distribution by LC-MS/MS. In kind it is cell-based. To be noted: A375, 25 μM, 24 h; for Compound accumulation normalized to telmisartan, Chromatin Bound: chromatin-bound nuclear fraction; for Compound accumulation normalized to telmisartan, Cytoplasm: cytoplasmic fraction; for Compound accumulation normalized to telmisartan, Cytoskeleton: cytoskeletal fraction; for Compound cell accumulation normalized to telmisartan, Whole Lysate: μmol compound per μg cell protein normalized to telmisartan. The method, then:
Cells were then trypsinized, washed with PBS and pelleted. For whole cell lysates, cell pellet was dissolved in RIPA buffer on ice. Fractions and whole cell lysates were stored at -80 °C until use. Protein concentration of lysates was determined with Pierce BCA Protein assay kit (Thermo Fisher #23225), and cell accumulation was calculated as μmol of compound per μg of cell protein and normalized to telmisartan. Concentrations of telmisartan and its derivatives were determined using liquid chromatography-tandem mass spectrometry (LC-MS/MS) method in positive HESI mode. The analysis was performed on UHPLC chromatograph […] (Thermo Fisher Scientific Inc., Madison, WI, USA), coupled to a triple quadrupole mass spectrometer TSQ Quantum Access MAX (Thermo Fisher Scientific Inc., Madison, WI, USA) with heated electrospray ionization (HESI) interface. The column was Zorbax Extend C18 (150 mm × 4.6 mm, 5 μm particle size). […] Experiment was repeated twice.

For data set [2], the system named is A375R cells. The experiment in a line: Cell cycle distribution (PI, flow cytometry), A375R. As to conditions: 25 µM, 72 h. In kind it is cell-based. The method, then: (§1) A375 and A375R cells were seeded in 6-well plates at a density of 150,000 cells per well. On the following day, the cells were treated with 25 µM concentrations of compounds 1, 3, and 8, as well as telmisartan. After 72 h of incubation, the cells were harvested using trypsin, washed with phosphate-buffered saline (PBS), fixed in ethanol, and stored at −20 °C until analysis. Ethanol-fixed cells were treated with RNase A (1 mg/mL) and stained with propidium iodide (PI; 400 µg/mL). A total of 20,000 events were recorded per sample. Quantitative analysis of the cell cycle phase distribution was performed by flow cytometry using a FACSCalibur flow cytometer (Becton Dickinson, San Jose, CA, USA) and BD CellQuest Pro Version 5.2.1 software. Experiment was performed three times. Cells under treatment were compared to controls for each cell phase separately with one-way ANOVA and Dunnett’s multiple comparison tests. p < 0.05 was considered statistically significant.
(In general: In flow cytometry, cells or beads pass a laser one at a time.)

Data set [3] relates to HaCaT (human keratinocytes). The experiment in a line: MTT cell viability assay, HaCaT. As to conditions: 72 h. The format is cell-based. As for the experimental part: (§2) A375, MRC-5, and HaCaT cell lines were obtained from the American Type Culture Collection (ATCC). 518A2 cell line was kindly provided by Dr. […]ć. All cell lines were cultured in RPMI 1640 medium supplemented with 2 g/L glucose, 10% fetal bovine serum (FBS), and antibiotics. […] Cell viability was assessed using the MTT assay (Sigma Aldrich, #M5655). […] After 72 h of incubation, absorbance was measured at 570 nm using a Multiskan SkyHigh microplate reader (Thermo Fisher Scientific, Helsinki, Finland). Values were corrected by subtracting the absorbance measured in wells containing cell-free medium with tested compounds.
For orientation: Tetrazolium dyes change colour on reduction, which living cells bring about.

The subject of a further data set is 518A2 cells. The experiment in a line: MTT cell viability assay, 518A2. In kind it is cell-based. To be noted: Homo sapiens; 518A2, MTT, 72 h. As for the experimental part:
as §2

The test system of data set [4] is A375R cells. The experiment in a line: MTT cell viability assay, vemurafenib-resistant A375R. In kind it is cell-based. As to conditions: for IC50: A375R, MTT, 72 h. As for the experimental part:
as §2

Data set [5] deals with A375 cells. The experiment in a line: Cell cycle distribution (PI, flow cytometry), A375. The format is cell-based. To be noted: A375, 25 µM, 72 h. As for the experimental part: as §1
The subject of data set [6] is A375 cells. The experiment in a line: MTT cell viability assay, A375. To be noted: 72 h; for Effect on cell viability at single concentration: A375, 25 μM, MTT; for IC50: Homo sapiens, A-375, A375, MTT. The format is cell-based. As for the experimental part:
as §2

In data set [7] the test system is A375 cells. The experiment in a line: Mitochondrial morphology staining (MitoTracker Green FM). In kind it is cell-based. As to conditions: A375, 25 μM, 24 h. As for the experimental part: For imaging of the mitochondrial morphology in live cells, A375 cells seeded in 96-well optical bottom plates, as above, were treated for 24 h with 25 μM telmisartan, compound 1, 3, or 8. Treatment was washed away, and cells were stained with 500 nM MitoTracker Green FM (#9074, Cell signaling Technology, Danvers, MA, USA) in RPMI without serum for 30 min at 37 °C. Cells were imaged on Zeiss PALM MicroBeam Axio Observer Z1 microscope (Carl Zeiss MicroImaging GmbH, Oberkochen, Germany) with Zeiss LD Plan-Neofluar 20×/0.4 Korr, ∞/0–1.5 mm lens and AxioVision software. Mitochondrial shape was quantified in images from two biological experimental repeats, in three random fields for each condition, using Image J Analyze Particles function. Images were first processed to 8-bit binary, and circularity and aspect ratio (major axis/minor axis) were calculated and plotted with Prism 9 (GraphPad Software, LLC, Boston, MA, USA). Treatments were compared with untreated control using one-way ANOVA and Dunnett’s multiple comparisons test. p < 0.05 was considered statistically significant.

Data set [8] in a line: Stability in biological media (HPLC). To be noted: room temperature. The format is physicochemical. As for the experimental part:
To test stability in biological media, three best drug candidates (compounds 1, 3, and 8) were dissolved in 0.05 M hydrochloric acid, pH 2.0, and phosphate buffer, pH 5.5 (prepared by dissolving sodium dihydrogen phosphate dihydrate and disodium hydrogen phosphate in distilled water, followed by the adjustment of pH by ortho-phosphoric acid) and RPMI 1640 medium. Stock solutions in DMSO (2 mg/mL) were diluted by corresponding medium to obtain working solutions (0.02 mg/mL) and incubated at room temperature in 0.05 M hydrochloric acid (2 h), phosphate buffer pH 5.5 (5 h), and RPMI 1640 medium (72 h). Compounds were injected freshly prepared, and after incubation time, the differences in concentrations was expressed as percentages. Quantification was performed on Dionex Ultimate 3000 HPLC system (Thermo Fisher Scientific, Dreieich, Germany), consisting of Dionex Ultimate 3000 quaternary pump, autosampler, and DAD detector. The column was Zorbax Extend C18 (150 mm × 4.6 mm, 5 µm particle size). The mobile phase was 0.1% formic acid/acetonitrile = 50/50 (compound 1) and 60/40 (compounds 3 and 8). The column temperature was adjusted to 25 °C, and the flow rate was 0.5 mL/min. The detection was performed at 300 nm.

Broadly, the IC50 is the concentration that inhibits the measured activity by half. A high value points to lower potency. Take `CCCc1nc2c(C)cc(-c3nc4ccccc4n3C)cc2n1Cc1ccc(-c2ccccc2C(=O)NC(Cc2ccc(O)cc2)C(=O)O)cc1` (stereo not drawn) [compound 3, 2-{[4′-(1,7′-dimethyl-2′-propyl-1H-[2,5′]bibenzoimidazolyl-3′-ylmethyl)-biphenyl-2-carbonyl]-amino}-3-(4-hydroxy-phenyl)-propionic acid]: in the data set on A375 cells [1], the “Compound accumulation normalized to telmisartan, Chromatin Bound” value stood at 0.52; the “Compound accumulation normalized to telmisartan, Cytoplasm” value turned out to be 3.64; the “Compound accumulation normalized to telmisartan, Cytoskeleton” value is listed as 0.69; the “Compound cell accumulation normalized to telmisartan, Whole Lysate” value is reported as 4.57. The “Compound accumulation normalized to telmisartan, Membrane” value in the data set with A375 cells [1] (membrane fraction) came out at 4.62. In the data set on A375R cells [2], the Cell cycle distribution result is on record as “cell cycle profile comparable to that of the untreated control cells”. For the same molecule, the IC50 in data set [3] was 63.46 ± 0.23 µM. Also, inhibition in the data set with 518A2 cells was half-maximal at 31 ± 2.38 µM (IC50). In the data set with A375R cells [4], this molecule showed a half-inhibitory concentration (IC50) of 21.1 ± 6.31 µM. Further, the Cell cycle distribution entry in the data set on A375 cells [5] is reported as “increased accumulation of cells in the subG1 phase, albeit not statistically significant”. In addition, in the data set with A375 cells [6], the “Effect on cell viability at single concentration” value is given as “significant reductions in cell viability” and the IC50 turned out to be 32.1 ± 2.38 µM. In addition, the Mitochondrial network morphology result in the data set on A375 cells [7] is reported as “disrupted the mitochondrial network to a greater extent than telmisartan”. Also, in data set [8] (phosphate buffer pH 5.5, 5 h), the “Change in concentration after incubation in phosphate buffer pH 5.5” value worked out at 3.49%.

For the molecule `CCCc1nc2c(C)cc(-c3nc4ccccc4n3C)cc2n1Cc1ccc(-c2ccccc2C(=O)NC(Cc2ccccc2)C(=O)O)cc1` (stereo not drawn) [compound 8, 2-{[4′-(1,7′-dimethyl-2′-propyl-1H-[2,5′]bibenzoimidazolyl-3′-ylmethyl)-biphenyl-2-carbonyl]-amino}-3-phenyl-propionic acid], in the data set with A375 cells [1], the “Compound accumulation normalized to telmisartan, Chromatin Bound” value is listed as 11.90; the “Compound accumulation normalized to telmisartan, Cytoplasm” value was determined as 11.17; the “Compound accumulation normalized to telmisartan, Cytoskeleton” value turned out to be 7.44; the “Compound cell accumulation normalized to telmisartan, Whole Lysate” value was found to be 4.41. In the data set on A375 cells [1] (membrane fraction), the “Accumulation in the membrane fraction” value stood at 26.814 µmol/L. In the data set on A375R cells [2], the Cell cycle distribution entry is recorded as “cell accumulation in the G0/G1 phase”. In addition, the concentration for half-maximal inhibition (IC50) in data set [3] was determined as 70.8 ± 6.99 µM. Further, the concentration for half-maximal inhibition (IC50) with 518A2 cells came to 28.4 ± 2.66 µM. In the data set with A375R cells [4] (A375R versus normal cell lines (HaCaT, MRC-5), from IC50 values), the Selectivity is on record as greater than 3.50. In the data set on A375R cells [4], this molecule showed a half-inhibitory concentration (IC50) of 8.84 ± 1.24 µM. Moreover, in the data set with A375 cells [5], the Cell cycle distribution result is “increased accumulation of cells in the subG1 phase, albeit not statistically significant”. In the data set on A375 cells [6], the “Effect on cell viability at single concentration” value is reported as “significant reductions in cell viability” and half-maximal inhibition (IC50) was put at 27.2 ± 0.58 µM. In the data set with A375 cells [7], the Mitochondrial network morphology entry was “dramatic fission and clumping of mitochondria”. For the same molecule, in [8] (0.05 M HCl, pH 2.0, 2 h), the “Change in concentration after incubation in 0.05 M hydrochloric acid” value came to 3.04%. For the same molecule, the “Change in concentration after incubation in RPMI 1640 medium” value in [8] (RPMI 1640 medium, 72 h) turned out to be 2.00%.

The values above are taken from PMC12787000 (Molecules, 2025).
